The text below walks through data of ChEMBL document CHEMBL1147921, “SAR studies on thiazolo[4,5-d]pyrimidine based CXCR2 antagonists involving a novel tandem displacement reaction” (Bioorg Med Chem Lett, 2007).

SMILES strings stand for the structures. pIC50: −log10 of the molar value. ≈ marks a conversion by molar mass, not a printed value.

Broadly, the pIC50 is −log10 of the IC50, conventionally taken in molar units. What is called solubility is the dissolved amount per volume that the medium holds. As usually defined, the half-life is the time needed for the level to fall by half in the phase considered. The bioavailability is the share of a dose that reaches the circulation, judged against a reference dose that is usually intravenous.

Data set [1] concerns the target T1, C-X-C chemokine receptor type 2 (Homo sapiens, UniProt P25025).
T1 sequence (P25025 whole entry): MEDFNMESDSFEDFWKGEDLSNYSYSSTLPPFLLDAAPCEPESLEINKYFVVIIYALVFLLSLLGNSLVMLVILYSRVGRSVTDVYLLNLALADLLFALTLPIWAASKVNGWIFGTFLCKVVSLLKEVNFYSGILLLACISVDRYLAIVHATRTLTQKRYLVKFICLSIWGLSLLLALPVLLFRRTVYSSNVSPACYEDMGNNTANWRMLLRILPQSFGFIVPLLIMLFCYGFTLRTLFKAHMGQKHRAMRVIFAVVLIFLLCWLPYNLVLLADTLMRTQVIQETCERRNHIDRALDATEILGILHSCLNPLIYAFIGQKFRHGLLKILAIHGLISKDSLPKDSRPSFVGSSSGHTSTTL
The data set is described as follows: Displacement of [125I]IL8 from human CXCR2 expressed in HEK 293 by SPA. Type of data set: cell-based, HEK293.

The nature of data set [2]: Protein binding in human plasma. Type of data set: ADME, cell-free. The settings on record: read-out: PPB (converted).
Data set [3] has as its target T1, C-X-C chemokine receptor type 2. In words: Antagonistic activity against human CXCR2 in neutrophils assessed as blockade of GROalpha stimulated calcium mobilisation by FLIPR. Type of data set: functional. (Calcium assays in cells follow changes in intracellular calcium, usually with a dye or a luminescent sensor.)
Data set [4] in a line: Permeability across human Caco-2 cell membrane. Type of data set: ADME, cell-based. The note with it: read-out: permeability. In general terms: Caco-2 cells form a polarised layer with tight junctions and transporters.
Data set [5] is described as follows: Permeability from apical to basolateral side of the human Caco-2 cell membrane. The settings on record: read-out: permeability. Type of data set: ADME, cell-based.
A short description of data set [6]: Solubility at pH 7.4. Type of data set: physicochemical. The note with it: buffer.
A short description of data set [7]: Half life in iv dosed rat. Type of data set: ADME, organism-based. The note with it: in vivo.
A short description of data set [8]: Bioavailability in po dosed rat. The settings on record: in vivo. Type of data set: ADME, organism-based.
The nature of data set [9]: Volume of distribution at steady state in iv dosed rat. It is filed as ADME, organism-based. The settings on record: in vivo, read-out: Vss.
The nature of data set [10]: Permeability from basolateral to apical side of the human Caco-2 cell membrane. It is filed as ADME, cell-based. The settings on record: read-out: permeability.

Turning to `C[C@H](CO)Nc1nc(SCc2ccccc2F)nc2nc(N)sc12`, the pIC50 in [1] is 7.90.
Same read-out and setting: with `C[C@H](CO)Nc1nc(SCc2cccc(F)c2)nc2nc(N)sc12` the figure was 7.80; with `C[C@H](CO)Nc1nc(SCc2ccccc2Cl)nc2nc(N)sc12`, 7.50.
Same read-out and setting: to `C[C@H](CO)Nc1nc(SCc2cccc(Cl)c2Cl)nc2nc(N)sc12` belongs 7.80; to `CC(C)(CO)Nc1nc(SCc2ccco2)nc2nc(N)sc12`, 7.00.
Still for that read-out and setting: to `C[C@H](CO)Nc1nc(SCc2ccco2)nc2nc(N)sc12` belongs 7.50; to `Cc1nc(CSc2nc(NC(C)(C)CO)c3sc(N)nc3n2)cs1`, 6.00; to `Nc1nc2nc(SCc3cccc(F)c3F)nc(N3CCCC3CO)c2s1` (configuration not stated), less than 6.00.
In data set [1], `CNc1nc2nc(SCc3cccc(F)c3F)nc(N[C@H](C)CO)c2s1` gave a pIC50 of 8.10.
On the same count and under the same terms, with `CCN(CC)c1nc2nc(SCc3cccc(F)c3F)nc(NC(CO)CO)c2s1` the figure was 5.80; with `Nc1nc2nc(SCc3cccc(F)c3F)nc(NC(CO)CO)c2s1`, 7.50.
On the same count and under the same terms, with `CC[C@H](CO)Nc1nc(SCc2cccc(F)c2F)nc2nc(N)sc12` the figure was 7.60.
Take `CC(C)(CO)Nc1nc(SCc2cccc(F)c2F)nc2nc(N)sc12`: the pIC50 in data set [1] is 7.60; in data set [3], 7.80. The fraction unbound in [2] was 0.016. Moreover, in data set [4], the Papp turned out to be 3.6 ×10⁻⁶ cm/s.
In data set [1], `C[C@@H](O)[C@@H](CO)Nc1nc(SCc2cccc(F)c2F)nc2nc(N)sc12` had a pIC50 of 7.80.
The same measure, in the same setting: with `CC(CO)(CO)Nc1nc(SCc2cccc(F)c2F)nc2nc(N)sc12` the figure was 7.10; with `Cc1nc(CSc2nc(N[C@H](C)CO)c3sc(N)nc3n2)cs1`, 6.90.
On the same count and under the same terms, to `C[C@H](CO)Nc1nc(SCc2cccc(Cl)c2)nc2nc(N)sc12` belongs 7.90.
`CC[C@H](CO)Nc1nc(SCc2cccc(F)c2F)nc2nc(NC(C)C)sc12` had a pIC50 in [1] of 7.00.
Still for that read-out and setting: to `CCN(CC)c1nc2nc(SCc3cccc(F)c3F)nc(N[C@H](C)CO)c2s1` belongs 6.40.
As for `C[C@H](CO)Nc1nc(SCc2cccc(F)c2F)nc2nc(NC3CC3)sc12`, the pIC50 in data set [1] is 7.70.
`C[C@H](CO)Nc1nc(SCc2cccc(F)c2F)nc2nc(N)sc12`: the Papp A→B in [5] worked out at 2.47 ×10⁻⁶ cm/s. The same molecule showed a solubility in data set [6] of 1.5 µg/mL (≈ 3.91 µM). Also, the half-life in data set [7] was 1.2 h. Also, in data set [8], the bioavailability is 9%. In addition, in data set [9], the Vd is 1.03 L/kg. In [10], the Papp B→A turned out to be 13.7 ×10⁻⁶ cm/s.
In data set [1], `C[C@H](CO)Nc1nc(SCc2cccc(Cl)c2F)nc2nc(N)sc12` gave a pIC50 of 8.40.
The molecule `OCC(CO)Nc1nc(SCc2cccc(F)c2F)nc2nc(NC3CC3)sc12` had a pIC50 in data set [1] of 7.00.
As to `CC(C)Nc1nc2nc(SCc3cccc(F)c3F)nc(N[C@H](C)CO)c2s1`, the pIC50 in data set [1] is 7.50.
